Assays:
Format in all cases: in vivo
[1] = system: large crabgrass (Digitaria sanguinalis, DIGSA); assay: Post-emerge test, greenhouse herbicide activity screening; settings: Digitaria sanguinalis, post-emergence, 336 h, post-emerge, phytotoxicity rating 0-100 at 14 days after application, read-out: Post-emerge Herbicidal Activity DIGSA; for pest or weed control at 63 g/ha: 63 g ai/ha; for pest or weed control at 250 g/ha: 250 g ai/ha
Procedure, shortened: (§1)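 Visual ratings on a 0-100 scale (0 no damage, 100 all plants dead) were taken at 14 days after treatment. Rates of 15-1000 g ai/ha in acetone, 187 l/ha, were sprayed onto soil one day after planting (pre-emerge) or onto 2-3 leaf plants with 0.25% v/v surfactant (post-emerge).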

[2] = system: barnyardgrass (Echinochloa crus-galli, ECHCG); assay: as above; settings: Echinochloa crus-galli, post-emergence, 336 h, post-emerge, phytotoxicity rating 0-100 at 14 days after application, read-out: Post-emerge Herbicidal Activity ECHCG; for pest or weed control at 63 g/ha: 63 g ai/ha; for pest or weed control at 250 g/ha: 250 g ai/ha
Procedure, shortened: as §1

[3] = system: lambsquarters (Chenopodium album, CHEAL); assay: as above; settings: Chenopodium album, post-emergence, 336 h, post-emerge, phytotoxicity rating 0-100 at 14 days after application, read-out: Post-emerge Herbicidal Activity CHEAL; for pest or weed control at 63 g/ha: 63 g ai/ha; for pest or weed control at 250 g/ha: 250 g ai/ha
Procedure, shortened: as §1

[4] = system: sicklepod (Cassia obtusifolia, CASOB); assay: as above; settings: Senna obtusifolia, post-emergence, 336 h, post-emerge, phytotoxicity rating 0-100 at 14 days after application, read-out: Post-emerge Herbicidal Activity CASOB; for pest or weed control at 63 g/ha: 63 g ai/ha; for pest or weed control at 250 g/ha: 250 g ai/ha
Procedure, shortened: as §1

[5] = system: redroot pigweed (Amaranthus retroflexus, AMARE); assay: as above; settings: Amaranthus retroflexus, post-emergence, 336 h, post-emerge, phytotoxicity rating 0-100 at 14 days after application, read-out: Post-emerge Herbicidal Activity AMARE; for pest or weed control at 63 g/ha: 63 g ai/ha; for pest or weed control at 250 g/ha: 250 g ai/ha
Procedure, shortened: as §1

[6] = system: johnsongrass (Sorghum halepense, SORHA); assay: as above; settings: Sorghum halepense, post-emergence, 336 h, post-emerge, phytotoxicity rating 0-100 at 14 days after application, read-out: Post-emerge Herbicidal Activity SORHA; for pest or weed control at 63 g/ha: 63 g ai/ha; for pest or weed control at 250 g/ha: 250 g ai/ha
Procedure, shortened: as §1

[7] = system: velvetleaf (Abutilon theophrasti, ABUTH); assay: as above; settings: Abutilon theophrasti, post-emergence, 336 h, post-emerge, phytotoxicity rating 0-100 at 14 days after application, read-out: Post-emerge Herbicidal Activity ABUTH; for pest or weed control at 63 g/ha: 63 g ai/ha; for pest or weed control at 250 g/ha: 250 g ai/ha
Procedure, shortened: as §1

[8] = system: ivyleaf morningglory (Ipomoea hederacea, IPOHE); assay: as above; settings: Ipomoea, post-emergence, 336 h, post-emerge, phytotoxicity rating 0-100 at 14 days after application, read-out: Post-emerge Herbicidal Activity IPOHE; for pest or weed control at 63 g/ha: 63 g ai/ha; for pest or weed control at 250 g/ha: 250 g ai/ha
Procedure, shortened: as §1

[9] = system: green foxtail (Setaria viridis, SETVI); assay: as above; settings: Setaria viridis, post-emergence, 336 h, post-emerge, phytotoxicity rating 0-100 at 14 days after application, read-out: Post-emerge Herbicidal Activity SETVI; for pest or weed control at 63 g/ha: 63 g ai/ha; for pest or weed control at 250 g/ha: 250 g ai/ha
Procedure, shortened: as §1

[10] = system: large crabgrass (Digitaria sanguinalis, DIGSA); assay: Pre-emerge test, greenhouse herbicide activity screening; settings: Digitaria sanguinalis, pre-emergence, 336 h, pre-emerge, phytotoxicity rating 0-100 at 14 days after application, read-out: Pre-emerge Herbicidal Activity DIGSA; for pest or weed control at 63 g/ha: rate 63 g ai/ha; for pest or weed control at 250 g/ha: rate 250 g ai/ha
Procedure, shortened: (§2)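 Herbicidal damage is scored 0 (none) to 100 (complete plant death) two weeks after a simulated field spray. Rates span 15–1000 g ai/ha, delivered in acetone at 187 l/ha. For post-emergence treatments, plants have 2–3 leaves and the spray carries 0.25% v/v non-ionic surfactant.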

[11] = system: barnyardgrass (Echinochloa crus-galli, ECHCG); assay: as above; settings: Echinochloa crus-galli, pre-emergence, 336 h, pre-emerge, phytotoxicity rating 0-100 at 14 days after application, read-out: Pre-emerge Herbicidal Activity ECHCG; for pest or weed control at 63 g/ha: rate 63 g ai/ha; for pest or weed control at 250 g/ha: rate 250 g ai/ha
Procedure, shortened: as §2

[12] = system: sicklepod (Cassia obtusifolia, CASOB); assay: as above; settings: Senna obtusifolia, pre-emergence, 336 h, pre-emerge, phytotoxicity rating 0-100 at 14 days after application, read-out: Pre-emerge Herbicidal Activity CASOB; for pest or weed control at 63 g/ha: rate 63 g ai/ha; for pest or weed control at 250 g/ha: rate 250 g ai/ha
Procedure, shortened: as §2

[13] = system: ivyleaf morningglory (Ipomoea hederacea, IPOHE); assay: as above; settings: Ipomoea, pre-emergence, 336 h, pre-emerge, phytotoxicity rating 0-100 at 14 days after application, read-out: Pre-emerge Herbicidal Activity IPOHE; for pest or weed control at 63 g/ha: rate 63 g ai/ha; for pest or weed control at 250 g/ha: rate 250 g ai/ha
Procedure, shortened: as §2

SMILES: Nc1c(O)c(Cl)cc(F)c1N1C(=O)C2=C(CCCC2)C1=O [Compound 8-2, 2-amino-6-chloro-4-fluoro-3-tetrahydrophthalimido)phenol]
- pest or weed control at 63 g/ha [1]: 30%
- pest or weed control at 250 g/ha [1]: 30%
- pest or weed control at 63 g/ha [2]: 20%
- pest or weed control at 250 g/ha [2]: 30%
- pest or weed control at 63 g/ha [3]: 40%
- pest or weed control at 250 g/ha [3]: 80%
- pest or weed control at 63 g/ha [4]: 50%
- pest or weed control at 250 g/ha [4]: 30%
- pest or weed control at 63 g/ha [5]: 95%
- pest or weed control at 250 g/ha [5]: 100%
- pest or weed control at 63 g/ha [6]: 10%
- pest or weed control at 250 g/ha [6]: 0%
- pest or weed control at 63 g/ha [7]: 100%
- pest or weed control at 250 g/ha [7]: 100%
- pest or weed control at 63 g/ha [8]: 50%
- pest or weed control at 250 g/ha [8]: 90%
- pest or weed control at 63 g/ha [9]: 40%
- pest or weed control at 250 g/ha [9]: 60%
- pest or weed control at 63 g/ha [10]: 0%
- pest or weed control at 250 g/ha [10]: 70%
- pest or weed control at 63 g/ha [11]: 0%
- pest or weed control at 250 g/ha [11]: 40%
- pest or weed control at 63 g/ha [12]: 0%
- pest or weed control at 250 g/ha [12]: 90%
- pest or weed control at 63 g/ha [13]: 0%
- pest or weed control at 250 g/ha [13]: 0%

SMILES: CC(C)Oc1c(Cl)cc(F)c(N2C(=O)C3=C(CCCC3)C2=O)c1N [Compound 8-4, N-(2-amino-4-chloro-6-fluoro-3-isopropyloxyphenyl)tetrahydrophthalimide]
- pest or weed control at 63 g/ha [1]: 0%
- pest or weed control at 250 g/ha [1]: 0%
- pest or weed control at 63 g/ha [2]: 0%
- pest or weed control at 250 g/ha [2]: 0%
- pest or weed control at 63 g/ha [3]: 70%
- pest or weed control at 250 g/ha [3]: 90%
- pest or weed control at 63 g/ha [4]: 0%
- pest or weed control at 250 g/ha [4]: 10%
- pest or weed control at 63 g/ha [5]: 70%
- pest or weed control at 250 g/ha [5]: 90%
- pest or weed control at 63 g/ha [6]: 0%
- pest or weed control at 250 g/ha [6]: 0%
- pest or weed control at 63 g/ha [7]: 60%
- pest or weed control at 250 g/ha [7]: 80%
- pest or weed control at 63 g/ha [8]: 0%
- pest or weed control at 250 g/ha [8]: 20%
- pest or weed control at 63 g/ha [9]: 0%
- pest or weed control at 250 g/ha [9]: 30%
- pest or weed control at 63 g/ha [10]: 20%
- pest or weed control at 250 g/ha [10]: 20%
- pest or weed control at 63 g/ha [11]: 0%
- pest or weed control at 250 g/ha [11]: 0%
- pest or weed control at 63 g/ha [12]: 0%
- pest or weed control at 250 g/ha [12]: 0%
- pest or weed control at 63 g/ha [13]: 0%
- pest or weed control at 250 g/ha [13]: 0%
